Where only a bound is given, the exact number is not on record here.

Data set [1] in a line: transmission and 5° regular-reflection spectra of spin-coated organic film on glass plate. The format is physicochemical. The settings on record: 2 parts in 98 parts 1,1,2-trichloroethane. The procedure:
A solution composed of 2 parts by weight of bis(tri-n-propylsiloxy)silicon-tetra(n-dodecylthio)naphthalocyanine [illustrative compound (100)] and 98 parts by weight of 1,1,2-trichloroethane was coated on a glass plate by a spin coating method and dried at about 80° C. for about 15 minutes to form an organic film. Transmission spectrum and 5° regular-reflection spectrum of the organic film of the illustrative compound are shown in FIG. 39 and FIG. 40, respectively.
An organic film of the same vanadyl-tetra(t-butyl) naphthalocyanine as used in Comparative Example 1 was formed on a glass plate in the same manner as in Test Example 2, and transmission spectrum (FIG. 43) and 5° regular-reflection spectrum (FIG. 44) of the organic film were measured.
A solution composed of 1 part by weight of each of the naphthalocyanine derivatives (127), (99) and (102) exemplified and 99 parts by weight of tetrahydrofuran was coated on a glass plate by a spin coating method and dried at about 80° C. for about 15 minutes to form an organic film. Transmission spectra and 5° regular-reflection spectra of the thus formed organic films of the naphthalocyanine derivatives are summarized in FIG. 45 and FIG. 46, respectively.

Data set [2] in a line: electronic spectra in various solvents. The data set is classed as physicochemical. The procedure: Bis(tri-n-propylsiloxy)silicon-tetra(ndodecylthio)n-aphthalocyanine [illustrative compound (100)] was dissolved in various solvents and its electronic spectra were measured. The electronic spectra in chloroform, tetrahydrofuran, acetone, toluene and hexane are shown in […], FIG. 35, FIG. 36, FIG. 37 and FIG. 38, respectively.
Vanadyl-tetra(t-butyl)-naphthalocyanine synthesized according to the method described in Zhurnal Obshchei Khimii, vol. 42, p. 696 (1972) was dissolved in each of chloroform and benzene and its electronic spectra were measured. The electronic spectra in chloroform and benzene are shown in FIG. 41 and FIG. 42, respectively.

Vanadyl-tetra(t-butyl)-naphthalocyanine: in data set [1], the “light-absorbing ability in the diode laser region (780 to 830 nm)” value is recorded as “did not have very high light-absorbing ability” and the “reflectivity in the diode laser region (780 to 830 nm)” value is no more than 20%. Moreover, the “change of absorption with concentration” value in data set [2] (electronic spectra in chloroform and benzene) was “The higher the concentration, the weaker the absorption near 800 nm and the stronger the absorption at 720 to 730 nm”. The “dependence of absorption waveform on kind of solvent and concentration” value in data set [2] (electronic spectra in solution) was “varied depending on the kind of solvent and the conventration of solution”.
